Data on 77 sequences can be found in the supplement of paper PMC11208160.

This series can be described thus: recombinant barcode read abundance after kanamycin selection (control-corrected) (log10(CPM+1)); higher = more efficient recombination; sequences stand for … in AGTGCAGAGAAAATCGGCCAGTTTTCTCTGCCTGCAGTCCGCATGCCGT…AGATTTATGCAGCGGACTGCCTTTCTCCCAAAGTGATAAACCGGACAGTATCATGGACCGGTTTTCCCGGTAATCCGTATTTGCAAGGTTGGTTTCACT; site = the 11-nt target. In a few lines:
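In a pooled screen in E. coli, targets were paired with target-binding loops of the IS621 bridge RNA. Each oligo carried a promoter, a target, a barcode and the first 104 bridge RNA bases driven by J23119, and was Gibson-cloned into a vector holding the remaining 73 bp and a T7-inducible recombinase before co-electroporation with a donor plasmid. Duplicate platings went onto chloramphenicol/ampicillin LB agar as the control or onto chloramphenicol/ampicillin/kanamycin with 0.1 mM IPTG. Recombination efficiency is the averaged, control-corrected count per million of barcodes at recombinant junctions, given as log10(CPM+1).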
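Also: IS621 recombinase and bridge RNA in Escherichia coli cells.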

Turning to “CGTTCCTCTTGGGTTCTAACCTGTTGCCT (site CTTTCCTCTAG)”, the “recombinant barcode read abundance (log10)” value is 0.0942. Turning to “CTAAAAGCTTGGGTTCTAACCTGTTGCAA (site CTAAAAGCTTT)”, the “recombinant barcode read abundance (log10)” value is 0.501. Regarding “CTAAAAGCTTGGGTTCTAACCTGTTGCAA (site GGCTGTCCTAC)”, the “recombinant barcode read abundance (log10)” value turned out to be 0.628. Regarding “CTAAAGACTTGGGTTCTAACCTGTTGCAC (site CCAAAGACTAT)”, the “recombinant barcode read abundance (log10)” value was 0.0891. For the sequence “CTAAAGACTTGGGTTCTAACCTGTTGCAC (site CTAAAGACTGT)”, the “recombinant barcode read abundance (log10)” value amounted to 1.42.

Turning to “CTAAATACTTGGGTTCTAACCTGTTGCCT (site CTAAATACTAG)”, the “recombinant barcode read abundance (log10)” value is 0.17. Regarding “CTAAATACTTGGGTTCTAACCTGTTGCCT (site CTAAATACTTA)”, the “recombinant barcode read abundance (log10)” value was found to be 0.0116. On to “CTAAATACTTGGGTTCTAACCTGTTGCGT (site CTAAATACTAC)”, for which the “recombinant barcode read abundance (log10)” value was 1.54.

In the case of “CTAAATACTTGGGTTCTAACCTGTTGCGT (site CTACATTCTAC)”, the “recombinant barcode read abundance (log10)” value came to 0.00955. As for “CTAAGAACTTGGGTTCTAACCTGTTGCGT (site CTAAGAACTAA)”, the “recombinant barcode read abundance (log10)” value worked out at 0.0418. Consider “CTAAGAACTTGGGTTCTAACCTGTTGCGT (site CTAAGAACTAC)”, for which the “recombinant barcode read abundance (log10)” value worked out at 2.1.

For “CTAAGAACTTGGGTTCTAACCTGTTGCGT (site CTAAGAACTAG)”, the “recombinant barcode read abundance (log10)” value worked out at 0.264.

With “CTAAGAACTTGGGTTCTAACCTGTTGCGT (site CTAAGAACTAT)”, the “recombinant barcode read abundance (log10)” value amounted to 0.615. In the case of “CTAAGCGCTTGGGTTCTAACCTGTTGCCA (site CTAAGAGCTTG)”, the “recombinant barcode read abundance (log10)” value worked out at 0.145. Under “CTAAGCGCTTGGGTTCTAACCTGTTGCCA (site CTAAGCGCTTG)” stands 0.647; under “CTAAGCGCTTGGGTTCTAACCTGTTGCCA (site CTAAGGGCTTG)”, 0.205. Regarding “CTAAGCGCTTGGGTTCTAACCTGTTGCCA (site CTAAGTGCTTG)”, the “recombinant barcode read abundance (log10)” value was 0.0786. The result for “CTAAGCTCTTGGGTTCTAACCTGTTGCTT (site CTAAGCTCTAA)” reads 0.0662; that for “CTAAGCTCTTGGGTTCTAACCTGTTGCTT (site CTAAGCTCTCA)”, 0.133. Under “CTAAGCTCTTGGGTTCTAACCTGTTGCTT (site CTAAGCTCTGA)” stands 0.0802.

Regarding “CTAAGCTCTTGGGTTCTAACCTGTTGCTT (site CTAAGCTCTTA)”, the “recombinant barcode read abundance (log10)” value stood at 0.107. Regarding “CTAAGGCCTTGGGTTCTAACCTGTTGCCT (site CTAAAGCCTAG)”, the “recombinant barcode read abundance (log10)” value was 0.377. As for “CTAAGGCCTTGGGTTCTAACCTGTTGCCT (site CTAAGGCCTAG)”, the “recombinant barcode read abundance (log10)” value worked out at 0.162. As for “CTAAGGTCTTGGGTTCTAACCTGTTGCTA (site CTAAGGTCTTA)”, the “recombinant barcode read abundance (log10)” value turned out to be 1.64. Consider “CTAAGGTCTTGGGTTCTAACCTGTTGCTA (site TCTTTAGCTCT)”, for which the “recombinant barcode read abundance (log10)” value is 0.123. As to “CTAAGTGCTTGGGTTCTAACCTGTTGCCA (site CTAAGAGCTTG)”, the “recombinant barcode read abundance (log10)” value was 0.0354.

As to “CTAAGTGCTTGGGTTCTAACCTGTTGCCA (site CTAAGCGCTTG)”, the “recombinant barcode read abundance (log10)” value worked out at 0.0378. The result for “CTAAGTGCTTGGGTTCTAACCTGTTGCCA (site CTAAGGGCTTG)” reads 0.0841; that for “CTAAGTGCTTGGGTTCTAACCTGTTGCCA (site CTAAGTGCTTG)”, 0.35. As to “CTAATATCTTGGGTTCTAACCTGTTGCCA (site CTAATATCTTG)”, the “recombinant barcode read abundance (log10)” value was 0.0293. In the case of “CTAATATCTTGGGTTCTAACCTGTTGCCA (site CTCATATCTTG)”, the “recombinant barcode read abundance (log10)” value stood at 0.128. In the case of “CTAATGTCTTGGGTTCTAACCTGTTGCCA (site CTAATGTCTAG)”, the “recombinant barcode read abundance (log10)” value stood at 0.622. On to “CTAATGTCTTGGGTTCTAACCTGTTGCCA (site CTAATGTCTTG)”, for which the “recombinant barcode read abundance (log10)” value worked out at 0.26. In the case of “CTAATTACTTGGGTTCTAACCTGTTGCAA (site CTAAGTACTCT)”, the “recombinant barcode read abundance (log10)” value turned out to be 0.0716. The result for “CTAATTACTTGGGTTCTAACCTGTTGCAA (site CTAATTACTTT)” reads 0.094; that for “CTACAAGCTTGGGTTCTAACCTGTTGCCT (site CTACAAGCTAG)”, 1.34; that for “CTACAAGCTTGGGTTCTAACCTGTTGCCT (site CTCCAAGCTAG)”, 0.279. Consider “CTACAAGCTTGGGTTCTAACCTGTTGCCT (site CTGCAAGCTAG)”, for which the “recombinant barcode read abundance (log10)” value came out at 0.155. Turning to “CTACAAGCTTGGGTTCTAACCTGTTGCCT (site CTTCAAGCTAG)”, the “recombinant barcode read abundance (log10)” value was 0.177. Under “CTACAATCTTGGGTTCTAACCTGTTGCCT (site ATACAATCTAG)” stands 0.0309. Under “CTACAATCTTGGGTTCTAACCTGTTGCCT (site CTACAATCTAG)” stands 0.979; under “CTACAATCTTGGGTTCTAACCTGTTGCCT (site GTACAATCTAG)”, 0.0211. For “CTACAATCTTGGGTTCTAACCTGTTGCCT (site TTACAATCTAG)”, the “recombinant barcode read abundance (log10)” value was 0.0283.

For the sequence “CTACACACTTGGGTTCTAACCTGTTGCTC (site CTACACACTGA)”, the “recombinant barcode read abundance (log10)” value worked out at 1.64. As to “CTACACACTTGGGTTCTAACCTGTTGCTC (site CTACACACTTA)”, the “recombinant barcode read abundance (log10)” value was found to be 0.0402. As for “CTACAGACTTGGGTTCTAACCTGTTGCGA (site CTACAGACTAC)”, the “recombinant barcode read abundance (log10)” value was found to be 0.0546. “CTACAGACTTGGGTTCTAACCTGTTGCGA (site CTACAGACTCC)”: the “recombinant barcode read abundance (log10)” value worked out at 1.04. The result for “CTACAGACTTGGGTTCTAACCTGTTGCGA (site CTACAGACTGC)” reads 0.0716; that for “CTACAGACTTGGGTTCTAACCTGTTGCGA (site CTACAGACTTC)”, 2.73; that for “CTACAGACTTGGGTTCTAACCTGTTGCGC (site CTACAGACTAC)”, 0.253. On to “CTACAGACTTGGGTTCTAACCTGTTGCGC (site CTACAGACTCC)”, for which the “recombinant barcode read abundance (log10)” value was found to be 0.221. “CTACAGACTTGGGTTCTAACCTGTTGCGC (site CTACAGACTGC)”: the “recombinant barcode read abundance (log10)” value was 1.21. “CTACAGACTTGGGTTCTAACCTGTTGCGC (site CTACAGACTTC)”: the “recombinant barcode read abundance (log10)” value amounted to 0.503. As to “CTACAGACTTGGGTTCTAACCTGTTGCGG (site CTACAGACTAC)”, the “recombinant barcode read abundance (log10)” value was determined as 0.088.

Take “CTACAGACTTGGGTTCTAACCTGTTGCGG (site CTACAGACTCC)”: the “recombinant barcode read abundance (log10)” value was found to be 2.61.

Turning to “CTACAGACTTGGGTTCTAACCTGTTGCGG (site CTACAGACTGC)”, the “recombinant barcode read abundance (log10)” value came to 0.141.

As to “CTACAGACTTGGGTTCTAACCTGTTGCGG (site CTACAGACTTC)”, the “recombinant barcode read abundance (log10)” value came out at 1.31. Take “CTACAGACTTGGGTTCTAACCTGTTGCGT (site CTACAGACTAC)”: the “recombinant barcode read abundance (log10)” value came out at 1.81. Turning to “CTACAGACTTGGGTTCTAACCTGTTGCGT (site CTACAGACTCC)”, the “recombinant barcode read abundance (log10)” value was found to be 0.229. Take “CTACAGACTTGGGTTCTAACCTGTTGCGT (site CTACAGACTGC)”: the “recombinant barcode read abundance (log10)” value amounted to 0.155. The result for “CTACAGACTTGGGTTCTAACCTGTTGCGT (site CTACAGACTTC)” reads 0.238. As for “CTACATTCTTGGGTTCTAACCTGTTGCGT (site CTAAATACTAC)”, the “recombinant barcode read abundance (log10)” value turned out to be 0.0752. For the sequence “CTACATTCTTGGGTTCTAACCTGTTGCGT (site CTACATTCTAC)”, the “recombinant barcode read abundance (log10)” value came out at 1.52. “CTACGATCTTGGGTTCTAACCTGTTGCAC (site CTACGATCTGT)”: the “recombinant barcode read abundance (log10)” value was 0.737. On to “CTACGATCTTGGGTTCTAACCTGTTGCAC (site CTACGCTCTGT)”, for which the “recombinant barcode read abundance (log10)” value was found to be 0.162. As for “CTACGATCTTGGGTTCTAACCTGTTGCAC (site CTACGGTCTGT)”, the “recombinant barcode read abundance (log10)” value was 0.375. Turning to “CTACGATCTTGGGTTCTAACCTGTTGCAC (site CTACGTTCTGT)”, the “recombinant barcode read abundance (log10)” value is 0.365. The result for “CTACGCTCTTGGGTTCTAACCTGTTGCGA (site CTACGCTCTTC)” reads 1.52; that for “CTACGCTCTTGGGTTCTAACCTGTTGCGA (site CTAGGCTCTCC)”, 0.452. The result for “CTACGGTCTTGGGTTCTAACCTGTTGCAC (site CTACGATCTGT)” reads 0.256; that for “CTACGGTCTTGGGTTCTAACCTGTTGCAC (site CTACGCTCTGT)”, 0.238.

Regarding “CTACGGTCTTGGGTTCTAACCTGTTGCAC (site CTACGGTCTGT)”, the “recombinant barcode read abundance (log10)” value was 0.404. For “CTACGGTCTTGGGTTCTAACCTGTTGCAC (site CTACGTTCTGT)”, the “recombinant barcode read abundance (log10)” value came out at 0.0783. Take “CTACGTCCTTGGGTTCTAACCTGTTGCTC (site CTACGTCCTAA)”: the “recombinant barcode read abundance (log10)” value was 0.191.

On to “CTACGTCCTTGGGTTCTAACCTGTTGCTC (site CTACGTCCTCA)”, for which the “recombinant barcode read abundance (log10)” value was 0.942. For “CTACGTCCTTGGGTTCTAACCTGTTGCTC (site CTACGTCCTGA)”, the “recombinant barcode read abundance (log10)” value was 0.91. The result for “CTACGTCCTTGGGTTCTAACCTGTTGCTC (site CTACGTCCTTA)” reads 0.0289.
